The source of these data is ChEMBL document CHEMBL6109156, “Discovery of Dual PD-L1/HDAC3 Inhibitors for Tumor Immunotherapy” (J Med Chem, 2025).

The nature of data set [1]: Toxicity in C57BL/6J mouse implanted with mouse B16-F10 cells assessed as liver damage at 20 to 40 mg/kg, ip administered once daily for 9 days by H and E staining based analysis. The following applies: in vivo, 216 h, dose 20-40 mg/kg, time 9 day. Format: organism-based.
The target in data set [2] is Programmed cell death protein 1/Programmed cell death 1 ligand 1 (Homo sapiens) (UniProt Q15116+Q9NZQ7). Briefly: (§1) Inhibition of PD-1/PD-L1 (unknown origin) interaction assessed as inhibition rate at 1 uM by HTRF assay relative to control. Format: protein-complex assay. (Time-resolved FRET reads energy transfer from a long-lived donor to a nearby acceptor.)
Data set [3] deals with Programmed cell death protein 1/Programmed cell death 1 ligand 1 (Homo sapiens, UniProt Q9NZQ7). The data set is described as §1. Format: protein-complex assay.
Sequence of Programmed cell death protein 1/Programmed cell death 1 ligand 1 (Q15116 whole entry): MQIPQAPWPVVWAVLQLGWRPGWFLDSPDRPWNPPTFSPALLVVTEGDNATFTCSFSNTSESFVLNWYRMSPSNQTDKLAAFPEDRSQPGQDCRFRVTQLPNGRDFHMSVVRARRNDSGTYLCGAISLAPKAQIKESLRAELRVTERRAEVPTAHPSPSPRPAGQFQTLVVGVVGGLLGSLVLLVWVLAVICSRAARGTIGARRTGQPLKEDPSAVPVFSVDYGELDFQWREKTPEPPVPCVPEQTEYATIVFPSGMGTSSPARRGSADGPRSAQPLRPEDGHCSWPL
Sequence of Programmed cell death protein 1/Programmed cell death 1 ligand 1 (Q9NZQ7 whole entry): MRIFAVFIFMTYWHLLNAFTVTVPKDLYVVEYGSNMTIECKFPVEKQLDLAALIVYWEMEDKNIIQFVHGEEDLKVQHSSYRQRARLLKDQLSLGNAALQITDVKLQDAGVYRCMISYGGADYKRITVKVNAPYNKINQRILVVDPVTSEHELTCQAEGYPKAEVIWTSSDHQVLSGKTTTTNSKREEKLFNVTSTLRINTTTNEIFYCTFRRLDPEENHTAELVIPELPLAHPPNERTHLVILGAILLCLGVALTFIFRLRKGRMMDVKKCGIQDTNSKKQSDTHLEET
Data set [4] has as its target Histone deacetylase 3 (Homo sapiens, UniProt O15379). Briefly: Inhibition of human recombinant HDAC3 using Ac-Leu-Gly-Lys (Ac)-AMC as substrate at 0.1 uM preincubated for 10 mins followed by substrate addition and measured after 45 mins by TECAN microtiter plate reader analysis relative to control. The settings on record: time 55.0 min.
The target in data set [5] is T1, Histone deacetylase 8 (Homo sapiens, UniProt Q9BY41).
T1 sequence (Q9BY41 whole entry): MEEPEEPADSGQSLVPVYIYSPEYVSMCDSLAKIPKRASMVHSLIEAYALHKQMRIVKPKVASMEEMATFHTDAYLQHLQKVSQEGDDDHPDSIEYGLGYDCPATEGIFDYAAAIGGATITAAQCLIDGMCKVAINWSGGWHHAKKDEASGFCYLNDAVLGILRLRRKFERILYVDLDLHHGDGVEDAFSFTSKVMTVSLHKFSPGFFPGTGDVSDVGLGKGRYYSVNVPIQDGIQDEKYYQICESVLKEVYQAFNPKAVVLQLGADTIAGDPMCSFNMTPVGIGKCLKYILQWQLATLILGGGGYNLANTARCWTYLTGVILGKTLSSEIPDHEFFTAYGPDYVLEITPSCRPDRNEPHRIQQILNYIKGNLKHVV
Briefly: Inhibition of human recombinant HDAC8 using Ac-Leu-Gly-Lys (Tfa)-AMC as substrate preincubated for 10 mins followed by substrate addition and measured after 45 mins by TECAN microtiter plate reader analysis.

Data set [6] deals with A-375. Briefly: Antiproliferative activity against human A-375 cells assessed as cell growth inhibition incubated for 48 hrs by MTT assay. The class given is functional, cell-based. The settings on record: A-375, 48 h. (Tetrazolium assays rely on reduction of a dye to a coloured formazan, in cell work by metabolically active cells.)
The subject of data set [7] is 4T1. Briefly: Antiproliferative activity against mouse 4T1 cells assessed as cell growth inhibition incubated for 48 hrs by MTT assay. The class given is functional, cell-based. The following applies: 4T1, 48 h.
Data set [8] relates to B16-F10. Briefly: Induction of apoptosis in mouse B16-F10 cells assessed as viable cells at 8 uM incubated for 48 hrs by Annexin V-FITC/PI staining based flow cytometry analysis (reference value: 92.3%). The following applies: read-out: Activity. Format: functional.
Data set [9] concerns B16-F10. Briefly: Induction of apoptosis in mouse B16-F10 cells assessed as early apoptotic cells at 4 uM incubated for 48 hrs by Annexin V-FITC/PI staining based flow cytometry analysis (reference value: 0.45 %). Format: functional. Background: Flow cytometry measures light scatter and fluorescence of single cells or particles in a stream.
The test system of data set [10] is B16-F10. Briefly: Induction of apoptosis in mouse B16-F10 cells assessed as late apoptotic cells at 2 uM incubated for 48 hrs by Annexin V-FITC/PI staining based flow cytometry analysis (reference value: 5.02 %). Format: functional.
Data set [11] has as its system B16-F10. In words: Induction of apoptosis in mouse B16-F10 cells assessed as late apoptotic cells at 8 uM incubated for 48 hrs by Annexin V-FITC/PI staining based flow cytometry analysis (reference value: 5.02 %). Format: functional.
The subject of data set [12] is B16-F10. Briefly: Induction of apoptosis in mouse B16-F10 cells assessed as late apoptotic cells at 10 uM incubated for 48 hrs by Annexin V-FITC/PI staining based flow cytometry analysis (reference value: 5.02 %). Format: functional.
Data set [13] has as its system B16-F10. In words: Induction of cell cycle arrest in mouse B16-F10 cells assessed as accumulation of cells at G2/M phase at 2 uM incubated for 48 hrs by PI staining based flow cytometry analysis (reference value: 5.87%). Format: functional.
Data set [14] has as its system B16-F10. In words: Induction of cell cycle arrest in mouse B16-F10 cells assessed as accumulation of cells at S phase at 2 uM incubated for 48 hrs by PI staining based flow cytometry analysis (reference value: 24.04%). The class given is functional.
Data set [15] relates to A-375. Briefly: Antiproliferative activity against human A-375 cells co-cultured with human Jurkat T cells incubated for 48 hrs by MTT assay. The following applies: dose 0.0625-1 µM. The class given is functional, cell-based.
The nature of data set [16]: Toxicity in C57BL/6J mouse implanted with mouse B16-F10 cells assessed as body weight loss at 20 to 40 mg/kg, ip administered once daily for 9 days. The class given is organism-based. The following applies: in vivo, 216 h, dose 20-40 mg/kg, time 9 day.
For data set [17], the system named is B16-F10. Briefly: Immunomodulatory activity in mouse B16-F10 cells implanted in C57BL/6J mouse assessed as percentage of CD3 positive CD8 positive cells in tumor at 20 mg/kg, ip administered once daily for 9 days by flow cytometric analysis (reference value: 0.44 %). The class given is functional. The following applies: time 9 day.

Structures are written as SMILES.

Sequence of Histone deacetylase 3 (O15379 whole entry): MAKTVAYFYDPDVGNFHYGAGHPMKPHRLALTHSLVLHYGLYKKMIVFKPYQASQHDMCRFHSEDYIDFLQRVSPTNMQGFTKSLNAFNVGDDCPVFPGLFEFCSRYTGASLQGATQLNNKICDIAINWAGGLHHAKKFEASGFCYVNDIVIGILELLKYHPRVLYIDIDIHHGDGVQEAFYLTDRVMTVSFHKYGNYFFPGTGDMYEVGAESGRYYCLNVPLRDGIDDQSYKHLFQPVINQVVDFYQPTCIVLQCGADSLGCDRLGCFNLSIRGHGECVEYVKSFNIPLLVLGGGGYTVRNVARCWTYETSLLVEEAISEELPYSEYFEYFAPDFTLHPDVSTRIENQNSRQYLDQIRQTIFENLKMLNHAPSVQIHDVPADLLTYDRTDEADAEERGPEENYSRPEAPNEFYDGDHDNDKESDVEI

For orientation: inhibition means the relative decrease from the control value, in per cent. The IC50 is the point on the concentration scale where inhibition reaches its midpoint. As for `CCCNNC(=O)CCCNCc1ccc(-c2cccc(-c3ccccc3)c2C)nc1OC`, the Activity result is reported as “Non-toxic” in [1]; 17.1% in data set [9]; 14.1% in data set [10]; 11.4% in data set [11]; 14.8% in data set [12]; 4.96% in [13]. For the same molecule, the Activity in data set [14] was 7.79%; in [15], “Dose-dependent-effect”; in [16], “Non-toxic”; in data set [17], 4.31%. For the same molecule, the inhibition in [2] was found to be 94.3%; in data set [4], 42%. The IC50 was 0.0894 µM in data set [3], greater than 10 µM in data set [5], 3.46 µM in data set [6] and 4.66 µM in data set [7]. For the same molecule, the viability at 8 µM in [8] was determined as 53.6%.
